Laboratory results reported in patent US20240239790A1, “7-Morpholino-1,6-Naphthyridin-5-yl Derivatives and Pharmaceutical Compositions Thereof Useful as DNA-PK Inhibitor” (adMare Therapeutics Society, priority 2021, published 2024).
Like-named read-outs stand apart in the source and are kept apart here.

How the values were obtained:
DNA-PK = target: T1, DNA-PK (Homo sapiens, UniProt P78527); assay: DNA-PK Assay for Biochemical Enzymatic Inhibition (ADP Glo Kinase assay); conditions: DNA-PK enzyme, Table 1
T1 construct: purchased Invitrogen PR9107A
In short: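 Human DNA-PK (25 ng) preincubated 15 min with compounds (ten three-fold dilutions) in HEPES pH 7.5, MgCl2, KCl, calf thymus DNA buffer, then substrate 434.4 μM and ATP 64.4 μM (final) for 60 min at room temperature. ADP-Glo luminescence; percent inhibition fitted by four-parameter regression for IC50.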

[1] = target: T2, DNA-PK phosphorylation at Serine 2056 (Homo sapiens, UniProt P78527); assay: Cellular Assay for Inhibition of DNA-PK Phosphorylation at Serine 2056 in FaDu cells (sandwich ELISA, neocarzinostatin); type: cell-based; conditions: pSer2056 DNA-PK, neocarzinostatin 1 μg/mL, Table 1
T2 construct: FaDu cells were purchased from ATCC; host or cells: FaDu
In short: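 pSer2056 and total DNA-PK were measured by sandwich ELISA in BCA-normalised FaDu lysates. Cells had 1 h compound exposure (0.3% DMSO), then 2 h with 1 μg/mL final neocarzinostatin. IC50 was fitted (variable slope) to % inhibition scaled against NCS-stimulated and DMSO-only controls.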

[2] = test system: pDNA-PK induction in HCT116 tumour spheroids; assay: Multicellular tumour spheroid + radiation, pDNA-PK (ser2056) inhibition, immunohistochemical endpoint, HCT116; type: cell-based; conditions: 20 Gy, 20% O2
Experimental: Multicellular tumour spheroids determination of compound inhibition of pDNA-PK induction following radiation. Tumour spheroids were grown to approximately 0.5 mm in diameter and irradiated with 20 Gy in combination with inhibitor test compounds to determine their potency. Inhibitor concentration for 50% reduction in pDNA-PK induction (IC50) was determined via immunohistochemical staining in spheroid cryosections taken 2 hours following radiation.
(§1) Spheroid+radiation pDNA-PK. Radiation: 20 Gy. Drug: serial dilution 5 or 10 μM down to 3.5 nM (11 wells). Spheroids: 3-6 spheroids per well (300-500 μm diameter). 20% 02 and 5% CO2. 96 well plate format.
Protocol: pre-incubate 1 hours with drug, irradiate with 20 Gy, post-incubate 2 hours with drug, freeze and cryosection ×3 replicates.
Endpoint: fluorescent immunostin pDNA-PK ser2056 and image on microscope.
Analysis: determine EC50 concentration that decreases pDNA-PK induction by 50% after radiation.
Multicellular tumour spheroids determination of compound inhibition of pDNA-PK induction following radiation. Tumour spheroids were grown to approximately 0.5 mm in diameter and irradiated with 20 Gy in combination with inhibitor test compounds to determine their potency. Inhibitor concentration for 50% reduction in pDNA-PK induction (IC50) was determined via immunohistochemical staining in spheroid cryosections taken 2 hours following radiation. For cell survival endpoint 8 Gy radiation was used and 3 hours following radiation spheroids were dissociated, counted and plated for colony forming endpoint.
as §1, with “format. Endpoint: fluorescent immunostain pDNA-PK ser2056 and image on microscope. Analysis: determine EC50 concentrations that decreases pDNA-PK induction by 50% after irradiation.” for “format.”
Multicellular tumour spheroids were used to determine potency of test compounds in a 3D tissue environment using inhibition of pDNA-PK induction following radiation or cell survival as the endpoint. For the pDNA-PK endpoint HCT116 or FaDU tumour spheroids were grown to approximately 0.5 mm in diameter and irradiated with 20 Gy in combination with inhibitor test compounds to determine their potency. Experiments were carried out in 96 well plates containing 0.7 mls of MEM media containing 10% FBS and 10 mM glucose under 20% O2 & 5% CO2 at 37° C. Following dilution of compounds 1:1000 from DMSO stocks, compounds were serially diluted from 10 μM down to 3.5 nM and 5-10 spheroids added. 96 well plates were constantly stirred to avoid spheroids settling during the course of the experiment. The inhibitor concentration for 50% reduction in pDNA-PK induction (EC50) was determined via immunohistochemical staining in spheroid cryosections taken 2 hours following radiation using anti-pDNA-PK (ser 2056) and fixed immediately in formalin following sectioning. For cell survival endpoint 8 Gy radiation was used and, 3 hours following radiation, spheroids were dissociated, counted and plated for colony forming endpoint. Data presented in the table compound potency as EC50 [μM].

[3] = Homo sapiens, HCT-116, 2 hours following radiation, Example 9 Study 2, read-out: Spheroid Cell line: HCT116 Immunohistochemical endpoint pDNA-PK inhibition EC50
[4] = Homo sapiens, HCT-116, Spheroid, Cell Line: HCT115 (so in the source), 2 hours following radiation, Example 7, read-out: EC50, Immunohistochemical endpoint, pDNA-PK inhibition
[5] = Homo sapiens, HCT-116, 2 h, spheroids, Example 8, read-out: Cell line: HCT116 Immunohistochemical endpoint pDNA-PK inhibition EC50

5-(((1s,4s)-4-(1H-imidazol-1-yl)cyclohexyl)oxy)-7-morpholino-N-propyl-1,6-naphthyridine-3-carboxamide [Compound 169]
IC50 (DNA-PK): 0.01 to 0.15 µM | IC50 [1]: 1 to 10 µM | EC50 ([2]; 2 hours following radiation, Example 9 Study 2, read-out: Spheroid Cell line: HCT116 Immunohistochemical endpoint pDNA-PK inhibition EC50): 10 to 100 µM | EC50 ([2]; Spheroid, Cell Line: HCT115 (so in the source), 2 hours following radiation, Example 7, read-out: EC50, Immunohistochemical endpoint, pDNA-PK inhibition): 10 to 100 µM | EC50 ([2]; spheroids, Example 8, read-out: Cell line: HCT116 Immunohistochemical endpoint pDNA-PK inhibition EC50): 10 to 100 µM

Cn1ccnc1COc1cnc(N[C@H]2CC[C@@H](Oc3nc(N4CCOCC4)cc4ncccc34)CC2)nc1 [Compound 79, 5-((1-methyl-1H-imidazol-2-yl)methoxy)-N-((1s,4s)-4-((7-morpholino-1,6-naphthyridin-5-yl)oxy)cyclohexyl)pyrimidin-2-amine]
IC50 (DNA-PK): 0.0005 to 0.001 µM | IC50 [1]: 0.1 to 1 µM | EC50 [2, 3]: 1 to 10 µM | EC50 [2, 4]: 1 to 10 µM

CN(C)C(=O)COc1cnc(N[C@H]2CC[C@@H](Oc3nc(N4CCOCC4)cc4ncc(C(=O)O)cc34)CC2)nc1 [Compound 180, 5-(((1s,4s)-4-((5-(2-(dimethylamino)-2-oxoethoxy)pyrimidin-2-yl)amino)cyclohexyl)oxy)-7-morpholino-1,6-naphthyridine-3-carboxylic acid]
IC50 (DNA-PK): < 0.0005 µM | IC50 [1]: 10 to 30 µM | EC50 [2, 3]: 10 to 100 µM | EC50 [2, 4]: 10 to 100 µM

CCOC(=O)c1cnc(N[C@H]2CC[C@@H](Oc3nc(N4CCOCC4)cc4ncccc34)CC2)nc1NC1CCOCC1 [Compound 94, Ethyl 2-(((1s,4s)-4-((7-morpholino-1,6-naphthyridin-5-yl)oxy)cyclohexyl)amino)-4-((tetrahydro-2H-pyran-4-yl)amino)pyrimidine-5-carboxylate]
IC50 (DNA-PK): 0.01 to 0.15 µM | IC50 [1]: 0.1 to 1 µM | EC50 [2, 3]: 1 to 10 µM | EC50 [2, 4]: 1 to 10 µM

CN(C)C(=O)N[C@H]1CC[C@@H](Oc2nc(N3CCOCC3)cc3ncccc23)CC1 [Compound 153, 1,1-Dimethyl-3-((1s,4s)-4-((7-morpholino-1,6-naphthyridin-5-yl)oxy)cyclohexyl)urea]
IC50 (DNA-PK): 0.001 to 0.01 µM | IC50 [1]: 0.1 to 1 µM | EC50 [2, 5]: 10 to 100 µM | EC50 [2, 3]: 10 to 100 µM | EC50 [2, 4]: 10 to 100 µM

O=C(NS(=O)(=O)C1CC1)c1cnc2cc(N3CCOCC3)nc(O[C@H]3CC[C@@H](n4ccnc4)CC3)c2c1 [Compound 174, 5-(((1s,4s)-4-(1H-imidazol-1-yl)cyclohexyl)oxy)-N-(cyclopropylsulfonyl)-7-morpholino-1,6-naphthyridine-3-carboxamide]
IC50 (DNA-PK): 0.001 to 0.01 µM | IC50 [1]: 10 to 30 µM | EC50 [2, 5]: 10 to 100 µM | EC50 [2, 3]: 10 to 100 µM | EC50 [2, 4]: 10 to 100 µM

CCCS(=O)(=O)NC(=O)c1cnc2cc(N3CCOCC3)nc(O[C@H]3CC[C@@H](n4ccnc4)CC3)c2c1 [Compound 173, 5-(((1s,4s)-4-(1H-imidazol-1-yl)cyclohexyl)oxy)-7-morpholino-N-(propylsulfonyl)-1,6-naphthyridine-3-carboxamide]
IC50 (DNA-PK): 0.001 to 0.01 µM | IC50 [1]: 10 to 30 µM | EC50 [2, 5]: 10 to 100 µM | EC50 [2, 3]: 10 to 100 µM | EC50 [2, 4]: 10 to 100 µM

c1cnc2cc(N3CCOCC3)nc(O[C@H]3CC[C@@H](Nc4ncc(OCc5ncco5)cn4)CC3)c2c1 [Compound 78, N-((1s,4s)-4-((7-Morpholino-1,6-naphthyridin-5-yl)oxy)cyclohexyl)-5-(oxazol-2-ylmethoxy)pyrimidin-2-amine]
IC50 (DNA-PK): 0.0005 to 0.001 µM | IC50 [1]: 0.1 to 1 µM | EC50 [2, 3]: 1 to 10 µM | EC50 [2, 4]: 1 to 10 µM

O=C(O)COc1cnc(N[C@H]2CC[C@@H](Oc3nc(N4CCOCC4)cc4ncccc34)CC2)nc1 [Compound 59, 2-((2-(((1s,4s)-4-((7-Morpholino-1,6-naphthyridin-5-yl)oxy)cyclohexyl)amino)pyrimidin-5-yl)oxy)acetic acid]
IC50 (DNA-PK): < 0.0005 µM | IC50 [1]: 10 to 30 µM | EC50 [2, 3]: 10 to 100 µM | EC50 [2, 4]: 10 to 100 µM

O=C(COc1cnc(N[C@H]2CC[C@@H](Oc3nc(N4CCOCC4)cc4ncccc34)CC2)nc1)N1CCSCC1 [Compound 73, 2-((2-(((1s,4s)-4-((7-Morpholino-1,6-naphthyridin-5-yl)oxy)cyclohexyl)amino)pyrimidin-5-yl)oxy)-1-thiomorpholinoethan-1-one]
IC50 (DNA-PK): 0.0005 to 0.001 µM | IC50 [1]: 0.1 to 1 µM | EC50 [2, 3]: 1 to 10 µM | EC50 [2, 4]: 1 to 10 µM

c1ccc(CSc2cnc3cc(N4CCOCC4)nc(O[C@H]4CC[C@@H](Nc5ncccn5)CC4)c3c2)cc1 [Compound 200c, N-((1s,4s)-4-((3-(benzylthio)-7-morpholino-1,6-naphthyridin-5-yl)oxy)cyclohexyl)pyrimidin-2-amine]
IC50 (DNA-PK): 0.01 to 0.15 µM | IC50 [1]: 10 to 30 µM | EC50 [2, 3]: 10 to 100 µM | EC50 [2, 4]: 10 to 100 µM

CSc1cnc2cc(N3CCOCC3)nc(O[C@H]3CC[C@@H](Nc4ncccn4)CC3)c2c1 [Compound 200d, N-((1s,4s)-4-((3-(methylthio)-7-morpholino-1,6-naphthyridin-5-yl)oxy)cyclohexyl)pyrimidin-2-amine]
IC50 (DNA-PK): 0.001 to 0.01 µM | IC50 [1]: 0.1 to 1 µM | EC50 [2, 3]: 1 to 10 µM | EC50 [2, 4]: 1 to 10 µM

O=S(=O)(Nc1cnc2cc(N3CCOCC3)nc(O[C@H]3CC[C@@H](Nc4ncccn4)CC3)c2c1)C1CCC1 [Compound 191, N-(7-morpholino-5-(((1s,4s)-4-(pyrimidin-2-ylamino)cyclohexyl)oxy)-1,6-naphthyridin-3-yl)cyclobutanesulfonamide]
IC50 (DNA-PK): 0.001 to 0.01 µM | IC50 [1]: 0.1 to 1 µM | EC50 [2, 3]: 10 to 100 µM | EC50 [2, 4]: 10 to 100 µM

O=C(Nc1ccccn1)[C@H]1CC[C@@H](Oc2nc(N3CCOCC3)cc3ncccc23)CC1 [Compound 154c, (1S,4S)-4-((7-morpholino-1,6-naphthyridin-5-yl)oxy)-N-(pyridin-2-yl)cyclohexane-1-carboxamide]
IC50 (DNA-PK): 0.001 to 0.01 µM | IC50 [1]: 0.1 to 1 µM | EC50 [2, 5]: 1 to 10 µM | EC50 [2, 3]: 1 to 10 µM | EC50 [2, 4]: 1 to 10 µM
